Data as given in a melting point compilation (Tetko et al.).

SMILES: Cc1nn(C)c(C)c1Br
- melting point: 35 °C

SMILES: CC(C)(C)OC(=O)N1CCN(c2ccccc2N)CC1
- melting point: 120 to 122 °C

SMILES: Clc1ccccc1-c1nnc(-c2ccccc2Cl)nn1
- melting point: 183 °C

SMILES: O=C(O)c1cccc(-c2cncnc2)c1
- melting point: 244 to 245 °C

SMILES: O=C(c1ccccc1)C1(O)CCCCC1
- melting point: 48 °C

SMILES: N#Cc1ccc(C=Cc2ccccc2C=NNc2ccccc2)c([N+](=O)[O-])c1
- melting point: 182 °C

SMILES: Cc1ccc2c(c1)/C(=N/NC(N)=O)CC2C (stereo not given)
- melting point: 227 °C

SMILES: Cc1c(C(=O)c2ccccc2C(=O)O)sc2ccccc12
- melting point: 181 to 183 °C

SMILES: CCN(CC)C(=O)c1cccc(C)c1
- melting point: -45 °C

SMILES: NCc1cccc(-c2ccccc2)c1
- melting point: 28 to 30 °C

SMILES: O=[N+]([O-])c1ccc(CCc2ccc([N+](=O)[O-])cc2)cc1
- melting point: 181 °C

SMILES: Cn1c(=O)c(C2=NNC(=O)C2=CNc2ccccn2)c(O)c2ccccc21
- melting point: 235 °C

SMILES: Cc1cccc(C)c1OCC(C)N (stereo not given)
- melting point: 204 °C

SMILES: CC(C(=O)O)c1cccc(C(=O)c2ccccc2)c1 (stereo not given)
- melting point: 94 °C

SMILES: O=C(c1ccccc1)c1cc(C(=O)c2ccccc2)cc(C(=O)c2ccccc2)c1
- melting point: 118 °C

SMILES: C=CCC1=C(C)C(OC(=O)C2C(C=C(C)C)C2(C)C)CC1=O (stereo not given)
- melting point: 4 °C

SMILES: CN1CCN(c2ncc(Br)c(OCc3ccccc3)n2)CC1
- melting point: 63 °C

SMILES: CC(Cc1ccccc1)NCCC(c1ccccc1)c1ccccc1 (stereo not given)
- melting point: 38 °C

SMILES: O=C(CNc1ccccc1)Nc1ccc(Br)cc1
- melting point: 154 °C

SMILES: C#Cc1ccc(OC)cc1
- melting point: 28 to 30 °C

SMILES: O=CC(C=O)c1ccc2ccccc2n1
- melting point: 198 to 202 °C

SMILES: CCCCCCCCCCCC=O
- melting point: 44.5 °C

SMILES: CC(C)(C)[N+](=O)[O-]
- melting point: 26.2 °C

SMILES: O=C1CCC(c2ccc(NC(=O)C(Cl)Cl)cc2)=NN1
- melting point: 252 to 253 °C

SMILES: Nc1ccc2c3c(cccc13)-c1ccccc1-2
- melting point: 116 °C

SMILES: Cc1n[nH]c(C)c1C(=O)O
- melting point: 273 to 275 °C

SMILES: COc1nn(CSP(=S)(OC)OC)c(=O)s1
- melting point: 39.5 °C

SMILES: CC(C)(C)OC(=O)ON=C(C#N)c1ccccc1
- melting point: 86 to 89 °C

SMILES: COc1ccc(C=CC(=O)c2cccc(C(=O)C=Cc3ccc(OC)cc3)c2)cc1
- melting point: 135 °C

SMILES: CC(=O)Nc1cc(C)no1
- melting point: 161 to 162 °C

SMILES: C(#Cc1ccc(/N=C/c2ccccc2)cc1)c1ccc(/N=C/c2ccccc2)cc1
- melting point: 207 °C

SMILES: FC(F)(Br)CBr
- melting point: -61 °C

SMILES: Cn1nc(CO)cc1-c1cccs1
- melting point: 56 to 60 °C

SMILES: O=C(O)c1ccc(O)c(C(=O)O)c1
- melting point: 310 °C

SMILES: CCCCCCCCCCC(C)O (stereo not given)
- melting point: 19 °C

SMILES: Nc1ccc2ccccc2c1N
- melting point: 98.5 °C

SMILES: Nc1cc2ccccc2c(Br)n1
- melting point: 144 to 146 °C

SMILES: COC(=O)C(Cl)C(C)=O (stereo not given)
- melting point: -33 °C

SMILES: Oc1cccnc1Br
- melting point: 185 to 188 °C

SMILES: CC1=C(Cl)CCP(=O)(c2ccccc2)C1 (stereo not given)
- melting point: 143 °C

SMILES: Clc1ccc(C2(Cn3cncn3)CC(Br)CO2)c(Cl)c1 (stereo not given)
- melting point: 84 °C

SMILES: O=C(c1ccccc1)C1CC1
- melting point: 7 to 9 °C

SMILES: Clc1cccc2cccc(Cl)c12
- melting point: 89 °C

SMILES: Nc1c(S(=O)(=O)c2ccccc2)csc1C(=O)O
- melting point: 174 to 176 °C

SMILES: CCC(=O)c1cccc(Br)c1
- melting point: 40 °C

SMILES: COc1ccc(N=C=O)c(OC)c1
- melting point: 32 °C

SMILES: COc1ccccc1-c1nnc2n1NC(c1ccccc1O)S2 (stereo not given)
- melting point: 205 °C

SMILES: CSc1cc(-c2ccc(Oc3ccccc3)cc2)n[nH]1
- melting point: 97 to 98.5 °C

SMILES: CC(=O)NCc1ccccc1
- melting point: 61 °C

SMILES: O=C(O)c1csc(-c2ccc(C(F)(F)F)cc2)n1
- melting point: 186 to 188 °C

SMILES: C1=C\c2ccc(cc2)-c2ccccc2-c2ccc/1cc2
- melting point: 230 °C

SMILES: CCCCCCCCCCCCCCCC(=O)OC1CCC2(C)C(=CCC3C2CCC2(C)C(C(C)CCCC(C)C)CCC32)C1 (stereo not given)
- melting point: 75 to 77 °C

SMILES: CC(=O)c1nn(-c2cccc([N+](=O)[O-])c2)c(=NC(=O)c2ccccc2)s1
- melting point: 196 °C

SMILES: CCC1CN2CCC1CC2C(O)c1ccnc2ccc(OC)cc12 (stereo not given)
- melting point: 172 °C

SMILES: O=C(Nc1ccc([N+](=O)[O-])cc1)Nc1ccc([N+](=O)[O-])cc1
- melting point: 312 °C

SMILES: O=C1c2ccccc2C(=O)N1Cc1ccccc1
- melting point: 116 °C

SMILES: CC#CCCCCC
- melting point: -61.6 °C

SMILES: O=C(O)C(CO)c1ccccc1 (stereo not given)
- melting point: 118 °C

SMILES: N#Cc1cc(F)ccc1[N+](=O)[O-]
- melting point: 103 °C

SMILES: C/C=C/C(=O)N1C(=O)OC[C@@H]1C(C)C
- melting point: 56 °C

SMILES: CCC12CCCN3CCC4(c5cccc(OC)c5N(C(C)=O)C4CC1)C32 (stereo not given)
- melting point: 208 °C

SMILES: NC(CN(Cc1ccccc1)c1ccccc1)=NO
- melting point: 107 °C

SMILES: COc1cc(C2Nn3c(nnc3-c3ccccc3OC)S2)ccc1O (stereo not given)
- melting point: 137 °C

SMILES: CCOC(=O)C1=C(C)NC(=O)NC1c1ccccc1Cl (stereo not given)
- melting point: 217 °C

SMILES: Nc1ccc(CN2CCCCC2)cc1
- melting point: 87 to 88 °C

SMILES: CCCCCCC(=O)CCCC
- melting point: 2 °C

SMILES: CCOC(=O)c1cn(C(C)=O)nc1N
- melting point: 110 °C

SMILES: CC(=O)CCc1oc2ccccc2c1-c1ccc(C)o1
- melting point: 54 °C

SMILES: Clc1ccc(-c2nnn[nH]2)cc1Cl
- melting point: 161 °C

SMILES: OC1C(O)C(O)C(O)C(O)C1O (stereo not given)
- melting point: 230 °C

SMILES: Clc1ccc(O[Si]23OCCN(CCO2)CCO3)cc1
- melting point: 166 °C

SMILES: c1ccc2c(c1)NC1(CCCC1)O2
- melting point: 221 °C

SMILES: CN(C)c1ccc(C#N)cc1
- melting point: 74 °C

SMILES: O=C(Nc1ccc(F)cc1F)c1cccnc1Oc1cccc(C(F)(F)F)c1
- melting point: 160 °C

SMILES: NC(=O)/C(=N\Nc1cccnc1)c1nc2ccccc2s1
- melting point: 238 °C

SMILES: CON=C(C(=O)NC1C(=O)N2C(C(=O)OCOC(=O)C(C)(C)C)=C(C=Cc3scnc3C)CSC12)c1csc(N)n1 (stereo not given)
- melting point: 128 °C

SMILES: N#C[C@@H]1CCCC[C@H]1O (relative stereo)
- melting point: 46 to 49 °C

SMILES: CC(C)(C)OC(=O)NC1(C(=O)O)CCc2ccccc2C1 (stereo not given)
- melting point: 185 to 187 °C

SMILES: O=Cc1cc([N+](=O)[O-])ccc1Sc1ccccn1
- melting point: 109 to 110 °C

SMILES: CC(=O)N=c1c(-c2ccccc2)cc2cc3cc(-c4ccccc4)c(=NC(C)=O)n(C(C)=O)c3cc2n1C(C)=O
- melting point: 238 to 240 °C

SMILES: Oc1ccc(Sc2ccc(O)cc2O)c(O)c1
- melting point: 173 to 177 °C

SMILES: NS(=O)(=O)c1cc(C(F)(F)F)ccc1C(F)(F)F
- melting point: 147 °C

SMILES: NC(=O)C(N)c1ccccc1 (stereo not given)
- melting point: 125 to 129 °C

SMILES: C=C(C)C(=O)OCC
- melting point: -60 °C

SMILES: O=C(Cl)c1csc(-c2ccccc2)n1
- melting point: 100 °C

SMILES: Fc1ccc(-c2ccc(Br)cc2)cc1
- melting point: 95 to 96 °C

SMILES: O=C(O)c1cccc2c1Cc1ccccc1-2
- melting point: 247 °C

SMILES: O=C(O)c1cncc(Br)c1
- melting point: 184 °C

SMILES: CCN1CC2(COC)CCC(O)C34C5CC6C(OC)CC(O)(C5C6OC)C(O)(C(OC)C23)C14 (stereo not given)
- melting point: 214 °C

SMILES: O=[N+]([O-])c1ccc(NN=Cc2cccc3c(Br)ccc([N+](=O)[O-])c23)cc1
- melting point: 205 °C
